Here are results for 35 compounds from ChEMBL document CHEMBL3797064, “An evaluation of synthetic indole derivatives as inhibitors of monoamine oxidase” (Bioorg Med Chem Lett, 2016).

pIC50: −log10 of the molar value. Bounds are passed on as bounds.

The target of assay [1] is T1, Amine oxidase [flavin-containing] B (Homo sapiens, UniProt P27338).
T1 sequence (P27338 whole entry): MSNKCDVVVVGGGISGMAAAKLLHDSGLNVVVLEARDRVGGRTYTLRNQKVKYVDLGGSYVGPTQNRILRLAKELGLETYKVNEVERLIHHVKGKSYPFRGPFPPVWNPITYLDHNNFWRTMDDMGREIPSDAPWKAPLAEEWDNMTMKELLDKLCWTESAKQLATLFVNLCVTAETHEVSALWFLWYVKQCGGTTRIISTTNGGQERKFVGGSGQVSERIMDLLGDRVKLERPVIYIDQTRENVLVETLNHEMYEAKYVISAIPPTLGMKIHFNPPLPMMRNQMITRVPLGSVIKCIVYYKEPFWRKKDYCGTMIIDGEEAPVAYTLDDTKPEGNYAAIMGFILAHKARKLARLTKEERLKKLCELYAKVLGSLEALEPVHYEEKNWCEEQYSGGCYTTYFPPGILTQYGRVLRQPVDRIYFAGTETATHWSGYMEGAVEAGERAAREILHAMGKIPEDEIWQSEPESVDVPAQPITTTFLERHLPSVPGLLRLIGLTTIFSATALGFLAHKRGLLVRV
The assay can be described thus: Inhibition of human recombinant MAO-B using kynuramine as substrate incubated for 20 mins by fluorescence spectrophotometric analysis.

Assay [2] is filed under the species Homo sapiens. The assay can be described thus: Selectivity index, ratio of IC50 for human recombinant MAO-B to IC50 for human recombinant MAO-A.
Assay [3] addresses T2, Amine oxidase [flavin-containing] A (Homo sapiens, UniProt P21397).
T2 sequence (P21397 whole entry): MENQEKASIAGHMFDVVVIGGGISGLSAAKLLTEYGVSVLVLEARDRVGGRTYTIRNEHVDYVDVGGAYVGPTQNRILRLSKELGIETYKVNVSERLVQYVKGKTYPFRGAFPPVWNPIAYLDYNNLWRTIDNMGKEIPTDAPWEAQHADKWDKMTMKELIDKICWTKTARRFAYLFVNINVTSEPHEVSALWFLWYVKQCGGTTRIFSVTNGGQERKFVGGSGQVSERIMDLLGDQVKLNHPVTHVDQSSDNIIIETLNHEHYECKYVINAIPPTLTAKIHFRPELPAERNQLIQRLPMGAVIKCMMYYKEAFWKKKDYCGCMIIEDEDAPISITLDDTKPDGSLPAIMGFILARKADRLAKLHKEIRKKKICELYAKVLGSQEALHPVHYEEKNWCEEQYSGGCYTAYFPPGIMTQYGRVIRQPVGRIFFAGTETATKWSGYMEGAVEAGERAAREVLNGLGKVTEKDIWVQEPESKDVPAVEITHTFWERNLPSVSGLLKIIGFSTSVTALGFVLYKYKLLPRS
The assay can be described thus: Inhibition of human recombinant MAO-A using kynuramine as substrate incubated for 20 mins by fluorescence spectrophotometric analysis.

For the compound `O=C1NC(=O)c2cc3c(Cl)c(-c4ccccc4)[nH]c3cc21`, the pIC50 in assay [1] is under 4.00; in assay [3], 6.60. In addition, the Ratio IC50 in assay [2] was over 400.

For `O=C(O)c1cc2cc(-c3cccs3)n(O)c2cc1C(=O)O`, the pIC50 in assay [1] and in assay [3] was under 4.00 each time.

Take `COn1c(-c2ccccc2)c(C=O)c2cc(C#N)c(C#N)cc21`: the pIC50 in assay [1] was under 4.00; in assay [3] it was 6.28. Besides, the Ratio IC50 in assay [2] was over 192.

As for `N#Cc1cc2cc(-c3cccs3)n(O)c2cc1C#N`, the pIC50 in assay [1] was under 4.00; in assay [3], 4.95. Moreover, the Ratio IC50 in assay [2] was over 9.

As for `COn1c(-c2ccccc2)c(Br)c2cc(C#N)c(C#N)cc21`, the pIC50 in assay [1] and in assay [3] was under 4.00 throughout.

`COc1ccc(C(=O)Cc2cc3c(cc2[N+](=O)[O-])C(=O)NC3=O)cc1`: the pIC50 in assay [1] is 5.92; in assay [3], 6.18. Also, the Ratio IC50 in assay [2] turned out to be 1.8.

As for `O=C(Cc1cc(C(=O)O)c(C(=O)O)cc1[N+](=O)[O-])c1ccccc1`, the pIC50 in assay [1] and in assay [3] was under 4.00 in each case.

Consider `O=C(Cc1cc2c(cc1[N+](=O)[O-])C(=O)N(Cc1ccccc1)C2=O)c1cccs1`, for which the pIC50 in assay [1] and in assay [3] was under 4.00 throughout.

`COn1c(-c2ccc(C)cc2)c(CO)c2cc(C#N)c(C#N)cc21`: the results for the pIC50 in assay [1] and in assay [3] were under 4.00 and 5.29, respectively. The Ratio IC50 in assay [2] was over 20.

Take `Cc1ccc(-c2cc3cc(C#N)c(C#N)cc3n2O)cc1`: the pIC50 was 6.09 in assay [1] and 5.94 in assay [3]. Further, in assay [2], the Ratio IC50 is 0.72.

With `COc1ccc(-c2c(CO)c3cc(C#N)c(C#N)cc3n2OC)cc1`, the results for the pIC50 in assay [1] and in assay [3] were under 4.00 and 5.95, respectively. The Ratio IC50 in assay [2] is over 88.

As to `Cc1ccc(-c2cc3cc(C(=O)O)c(C(=O)O)cc3n2O)cc1`, the pIC50 in assay [1] and in assay [3] was under 4.00 throughout.

On to `O=C(Cc1cc2c(cc1[N+](=O)[O-])C(=O)NC2=O)c1cccs1`, for which the pIC50 in assay [1] is under 4.00; in assay [3], 5.21. Besides, the Ratio IC50 in assay [2] is over 16.

Consider `O=C(Cc1cc(C(=O)O)c(C(=O)O)cc1[N+](=O)[O-])c1cccs1`, for which the pIC50 in assay [1] and in assay [3] was under 4.00 in each case.

As to `COn1c(-c2ccccc2)c(CO)c2cc(C#N)c(C#N)cc21`, the pIC50 was under 4.00 in assay [1] and 5.30 in assay [3]. The Ratio IC50 in assay [2] was over 20.

On to `Cc1ccc(C(=O)Cc2cc(C(=O)O)c(C(=O)O)cc2[N+](=O)[O-])cc1`, for which the pIC50 in assay [1] and in assay [3] was under 4.00 each time.

Take `COn1c(-c2ccccc2)cc2cc3c(cc21)C(=O)N(C)C3=O`: the pIC50 was under 4.00 in assay [1] and 5.91 in assay [3]. The Ratio IC50 in assay [2] was over 81.

As to `COc1ccc(-c2cc3cc(C#N)c(C#N)cc3n2O)cc1`, the results for the pIC50 in assay [1] and in assay [3] were 5.75 and 5.74, respectively. In assay [2], the Ratio IC50 was 0.97.

With `COn1c(-c2ccc(C)cc2)c(C=O)c2cc(C#N)c(C#N)cc21`, the results for the pIC50 in assay [1] and in assay [3] were 4.13 and 6.39, respectively. In addition, the Ratio IC50 in assay [2] was 185.

For the compound `COc1ccc(C(=O)Cc2cc3c(cc2[N+](=O)[O-])C(=O)N(Cc2ccccc2)C3=O)cc1`, the pIC50 in assay [1] is under 4.00; in assay [3] it was 5.26. In assay [2], the Ratio IC50 was over 18.

`O=C1NC(=O)c2cc3c(cc21)cc(-c1cccs1)n3O`: the results for the pIC50 in assay [1] and in assay [3] were under 4.00 and 5.20, respectively. Moreover, in assay [2], the Ratio IC50 was over 16.

Turning to `O=C1NC(=O)c2cc3c(cc21)cc(-c1ccccc1)n3O`, the pIC50 in assay [1] is 4.08; in assay [3] it was under 4.00. The Ratio IC50 in assay [2] was under 0.83.

`O=C(O)c1cc2cc(-c3ccccc3)n(O)c2cc1C(=O)O`: the pIC50 in assay [1] is 4.25; in assay [3], 4.63. Further, the Ratio IC50 in assay [2] is 2.4.

With `CC(=O)On1c(-c2cccs2)cc2cc(C#N)c(C#N)cc21`, the pIC50 in assay [1] was 5.71; in assay [3] it was 5.68. The Ratio IC50 in assay [2] worked out at 0.93.

As for `COC(=O)c1cc2cc(-c3ccc(OC)cc3)n(OC)c2cc1C(=O)OC`, the pIC50 in assay [1] was under 4.00; in assay [3], 4.72. Besides, the Ratio IC50 in assay [2] is over 5.3.

As to `COc1ccc(-c2c(C=O)c3cc(C#N)c(C#N)cc3n2OC)cc1`, the pIC50 in assay [1] is under 4.00; in assay [3] it was 6.83. Further, the Ratio IC50 in assay [2] was over 680.

With `COn1c(-c2cccs2)cc2cc3c(cc21)C(=O)NC3=O`, the pIC50 in assay [1] is 5.43; in assay [3], 5.17. Further, the Ratio IC50 in assay [2] came out at 0.56.

As to `COc1ccc(C(=O)Cc2cc(C(=O)O)c(C(=O)O)cc2[N+](=O)[O-])cc1`, the pIC50 in assay [1] and in assay [3] was under 4.00 throughout.

For `COc1ccc(-c2cc3cc(C(=O)O)c(C(=O)O)cc3n2O)cc1`, the pIC50 in assay [1] and in assay [3] was under 4.00 in each case.

As for `O=C(Cc1cc2c(cc1[N+](=O)[O-])C(=O)NC2=O)c1ccccc1`, the pIC50 in assay [1] is 5.17; in assay [3], 5.27. Moreover, the Ratio IC50 in assay [2] amounted to 1.3.

As to `N#Cc1cc2cc(-c3ccccc3)n(O)c2cc1C#N`, the pIC50 in assay [1] is 4.99; in assay [3], 5.16. Further, the Ratio IC50 in assay [2] was found to be 1.5.

Turning to `COn1c(-c2ccc(C)cc2)cc2cc3c(cc21)C(=O)NC3=O`, the values for the pIC50 in assay [1] and in assay [3] were 6.24 and 5.76, respectively. Also, in assay [2], the Ratio IC50 is 0.33.

With `Cc1ccc(-c2cc3cc4c(cc3n2O)C(=O)NC4=O)cc1`, the pIC50 in assay [1] was 5.09; in assay [3], 5.94. In addition, the Ratio IC50 in assay [2] was found to be 7.

For `Cc1ccc(C(=O)Cc2cc3c(cc2[N+](=O)[O-])C(=O)NC3=O)cc1`, the pIC50 in assay [1] is 6.03; in assay [3], 5.68. Besides, the Ratio IC50 in assay [2] was 0.44.

`COn1c(-c2ccc(C)cc2)c(Br)c2cc(C#N)c(C#N)cc21`: the pIC50 in assay [1] was 5.13; in assay [3], under 4.00. Besides, in assay [2], the Ratio IC50 is under 0.075.

Usually pIC50 stands for the negative decadic logarithm of the IC50, by convention in mol/L.
